Where a name gives a salt, the structure may show the parent alone.
How the values were obtained:
[1] = molecular target: T1, dopamine D4 receptors in cloned human dopamine receptor subtype 4.2 membranes (Homo sapiens, UniProt P21917, DEL265-296); assay: 3H-YM-09151-2 binding; conditions: 3H-YM-09151-2, cloned human D4.2 membranes
T1 construct: purchased Dupharma A/S, Denmark CRM-016
T1 sequence (P21917 with tags, fused parts or gaps DEL265-296): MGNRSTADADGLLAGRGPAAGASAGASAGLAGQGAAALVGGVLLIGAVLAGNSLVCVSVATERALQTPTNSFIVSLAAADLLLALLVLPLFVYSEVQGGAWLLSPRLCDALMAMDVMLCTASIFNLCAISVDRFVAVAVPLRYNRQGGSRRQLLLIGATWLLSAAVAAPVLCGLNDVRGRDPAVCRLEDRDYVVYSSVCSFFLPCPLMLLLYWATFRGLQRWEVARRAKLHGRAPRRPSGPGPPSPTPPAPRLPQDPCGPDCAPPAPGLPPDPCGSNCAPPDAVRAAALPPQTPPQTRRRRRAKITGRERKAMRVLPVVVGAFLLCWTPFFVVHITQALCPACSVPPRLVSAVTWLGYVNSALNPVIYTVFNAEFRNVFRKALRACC
Procedure: By this method the inhibition by drugs of the binding of the dopamine D4 antagonist ^3H-YM-09151-2 to dopamine D4 receptors in cloned human dopamine receptor subtype 4.2 membranes is determined in vitro. Accordingly, this is a test for affinity for dopamine D4 receptors. The test is performed using a preparation of cloned dopamine D4 cell membranes CRM-016®, Dupharma A/S, Denmark, in accordance with the product specifications.

IC50 [1] [nM]	Structure (SMILES)	further results
5.6	c1ccc2c(c1)CCC2CCN1CCN(c2ccc3c(c2)OCO3)CC1 (centres unmarked) [Compound 6a, 1-[2-[4-(3,4-Methylenedioxyphenyl)-piperazine-1-yl]ethyl]-indane]	–
–	Brc1ccc2c(c1)C(CN1CCN(c3ccc4c(c3)OCO4)CC1)CC2 (centres unmarked) [Compound 4b]	% inhibition of binding at 50 nM ([1]; at 50 nM): 33% at 50 nM
1.8	c1ccc2c(c1)CC(CN1CCN(c3ccc4c(c3)OCO4)CC1)C2 [Compound 6b]	–
–	c1ccc2c(c1)CCC2CCN1CCN(c2ccc3c(c2)OCO3)CC1 (centres unmarked) (as salt: fumarate) [Compound 6a, 1-[2-[4-(3,4-Methylenedioxyphenyl)-piperazine-1-yl]ethyl]-indane]	melting point: 191 to 192 °C
3.7	CC(=O)N1CC(CCN2CCN(c3ccc4c(c3)OCO4)CC2)c2ccccc21 (centres unmarked) [Compound 9b, 1-Acetyl-2,3-dihydro-3-[2-[4-[(3,4-methylenedioxyphenyl)piperazine-1-yl]ethyl]]1H-indole]	–
4.3	O=C(CCCN1CCN(c2ccc3c(c2)OCO3)CC1)C1CNc2ccccc21 (centres unmarked) [Compound 9a, 2,3-Dihydro-3-[4-[4[(3,4-methylenedioxyphenyl)piperazine-1-yl]butyl-1-oxo]]-1H-indole]	–
8.8	c1ccc2c(c1)CCC2CN1CCN(c2ccc3c(c2)OCO3)CC1 (centres unmarked) [Compound 4a]	–
–	c1ccc2c(c1)CC(CN1CCN(c3ccc4c(c3)OCO4)CC1)C2 (as salt: oxalate) [Compound 6b]	melting point: 197 to 199 °C
